According to PMC10184130:

Assays:
human factor D = biological target: T1, human factor D (Homo sapiens, UniProt P00746); experiment: Human factor D enzyme assay; format: biochemical; settings: supplementary csv
T1 construct: Recombinant human factor D (26–253 aa) fused with both the N-terminal IgG signal peptide; IgG signal peptide (N); His tag (C); made in house; host or cells: Expi293 cells
Text: Recombinant human factor D (26–253 aa) fused with both the N-terminal IgG signal peptide and the C-terminal His tag was expressed in Expi293 cells and purified. The human factor D assay condition was the same as for human MASP2, except that the enzyme solution concentration was 20 nmol/L and the substrate solution contained a 400 μmol/L Z-Lys-SBzl peptide and 50 μmol/L BES-Thio.

human C1r = biological target: T2, human C1r (Homo sapiens, UniProt P00736); experiment: Human C1r enzyme assay; format: biochemical; settings: supplementary csv
T2 construct: Recombinant human C1r (375–705 aa) fused with both the N-terminal IgG signal peptide; IgG signal peptide (N); His tag (C); made in house; host or cells: HEK293 cells
T2 sequence (P00736 375-705): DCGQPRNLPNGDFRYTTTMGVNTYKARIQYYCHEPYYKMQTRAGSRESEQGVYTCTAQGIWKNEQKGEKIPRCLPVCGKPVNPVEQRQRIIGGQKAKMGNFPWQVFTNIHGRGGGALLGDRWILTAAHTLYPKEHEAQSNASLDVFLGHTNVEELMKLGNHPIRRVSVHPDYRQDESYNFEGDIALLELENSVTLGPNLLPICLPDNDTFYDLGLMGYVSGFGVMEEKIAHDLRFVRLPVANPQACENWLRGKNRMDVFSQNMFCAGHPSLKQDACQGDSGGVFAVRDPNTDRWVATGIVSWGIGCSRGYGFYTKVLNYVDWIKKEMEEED
Text: Recombinant human C1r (375–705 aa) fused with both the N-terminal IgG signal peptide and the C-terminal His tag was expressed in HEK293 cells and purified. Human C1r assay conditions were the same as for human C1s, except that the enzyme solution concentration was 3 nmol/L and the substrate peptide was 250 μmol/L Z-Gly-Arg-SBzl (custom synthesis from Peptide Institute, Osaka, Japan) instead of Z-Lys-SBzl.

human trypsin = experiment: Human trypsin enzyme assay; format: biochemical; settings: supplementary csv
Procedure: Recombinant human trypsin (FUJIFILM Wako, Osaka, Japan) and the substrate were diluted in an assay buffer [50 mmol/L Tris–HCl (pH 7.5), 145 mmol/L NaCl, 2 mmol/L CaCl2, and 0.01% (w/v) Tween 20]. After 20 nL of compound solution was added to a 384-well black plate, 3 μL of substrate solution containing 25 μmol/L Boc-Phe-Ser-Arg-MCA (Peptide Institute, Osaka, Japan) was added to the plate. Then, 6 mU/mL human trypsin was added to the plate and incubated at room temperature for 60 min. The fluorescence at an excitation wavelength of 360 nm and an emission wavelength of 460 nm was detected using an EnVision multilabel plate reader.

human thrombin = biological target: T3, human thrombin (Homo sapiens, UniProt P00734); experiment: Human thrombin enzyme assay; format: biochemical; settings: supplementary csv
T3 construct: purchased AnaSpec
Procedure: The human thrombin enzyme activity was determined by a SensoLyte 520 thrombin activity assay kit (AnaSpec, CA, USA). Purified human thrombin and the substrate were diluted in the assay buffer 1. After 20 nL of compound solution was added to a 384-well black plate, 3 μL of the 2 μmol/L 5-FAM/QXLTM 520 thrombin substrate was added to the plate. Then, 8 nmol/L human thrombin was added to the plate and incubated at room temperature for 60 min. The fluorescence at an excitation wavelength of 485 nm and an emission wavelength of 535 nm was detected using an EnVision multilabel plate reader.

[1] = system: C5b-9 MAC formation induced by human serum; experiment: C5b-9 MAC complex formation study (Wieslab classical pathway kit); format: biochemical; settings: in vitro, dose-dependent
Procedure: The levels of the complement activation product C5b-9 MAC were determined by a Wieslab complement system classical pathway kit (Svar Life Science, Malmo, Sweden). Briefly, diluted human serum was preincubated with the reagent diluent containing 0.3% DMSO or a range of concentrations of C1s inhibitors for 10 min at room temperature. Then, the preincubated serum was added to each well, and the plate was incubated for 30 min at 37 ° C with a lid. The plate was then washed three times, and subsequent processes were conducted by following the manufacturer’s instructions. Lastly, the absorbance was measured with a Multiskan microplate photometer (Thermo Fisher Scientific, MA, USA), and the levels of complement activation were calculated based on the standard curve generated with calibrators with serially diluted human serum. The samples with serum treatment were set as 100%, and the activities of the negative control (NC) without the addition of serum were set as 0%.

MDR1 (P-gp) = biological target: T4, MDR1 (P-gp) (Homo sapiens, UniProt P08183); experiment: Membrane permeability with human MDR-1 expressing cells; format: in vitro ADME; settings: human; MDR1-expressing cells, 1 μmol/L, 2 h
T4 construct: expressed in transfected cells
Procedure: (§1) The transcellular transport study was performed as reported previously.[31] In brief, the cells were grown in an HTS Transwell 96-well permeable support (pore size of 0.4 μm, 0.143 cm^2 surface area) with a polyethylene terephthalate membrane (Corning Life Sciences, Lowell, MA, USA) at a density of 1.125 × 10^5 cells/well. The cells were preincubated with M199 at 37 °C for 30 min. Subsequently, transcellular transport was initiated by the addition of M199 to apical compartments containing 1 μmol/L test compounds and terminated by the removal of each assay plate after 2 h. The aliquots in the opposite compartments were subjected to measurement for compound concentration by LC–MS/MS. Permeability was calculated using the permeated compound concentration.

[2] = biological target: T5, Human Multidrug Resistance 1 (MDR-1) Expressing Cells (Homo sapiens, UniProt P08183); experiment: as above; format: in vitro ADME; settings: supplementary csv
T5 construct: expressed in transfected cells
Procedure: as §1

human kallikrein = experiment: Human kallikrein enzyme assay; format: biochemical; settings: supplementary csv
Procedure: Recombinant human kallikrein (R&D Systems, MN, USA) was activated by thermolysin (R&D Systems, MN, USA) prior to use. Compounds were dissolved in DMSO and then diluted in an assay buffer [50 mmol/L Tris–HCl (pH 7.5), 150 mmol/L NaCl, 10 mmol/L CaCl2, and 0.01% (w/v) Tween 20]. After 5 μL of compound solution was added to a 384-well black plate, 5 μL of substrate solution containing 150 μmol/L Pro-Phe-Arg-AMC (Peptide Institute, Osaka, Japan) was added to the plate. Then, 0.42 nmol/L human kallikrein was added to the plate and incubated at room temperature for 60 min. The fluorescence at an excitation wavelength of 380 nm and an emission wavelength of 460 nm was detected using a SpectraMax Paradigm plate reader.

T1 sequence (P00746 26-253): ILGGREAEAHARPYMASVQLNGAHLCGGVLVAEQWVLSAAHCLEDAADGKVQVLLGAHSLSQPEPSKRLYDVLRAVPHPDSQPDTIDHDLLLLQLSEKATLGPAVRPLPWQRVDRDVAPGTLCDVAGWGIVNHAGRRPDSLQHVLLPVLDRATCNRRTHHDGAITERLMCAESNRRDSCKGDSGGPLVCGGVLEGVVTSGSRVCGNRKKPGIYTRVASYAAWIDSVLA

In the case of `Cc1cc([C@H]2CN(c3cc(F)c4c(N)nncc4c3)CCN2c2cccc(F)c2)no1` [Compound (R)-8, 8-Fluoro-6-[(3R)-4-(3-fluorophenyl)-3-(5-methyl-1,2-oxazol-3-yl)piperazin-1-yl]phthalazin-1-amine], the IC50 (human factor D) is reported as > 30 µM, the IC50 (human C1r) is reported as > 30 µM and the IC50 (human trypsin) is reported as > 30 µM. For the same molecule, the IC50 (human thrombin) was > 30 µM, the “Inhibition of MAC formation induced by human serum” value [1] was “significantly inhibited” and the Papp A→B at 2 h, 1 μmol/L (MDR1 (P-gp)) was 1.4 ×10⁻⁶ cm/s. The “MDR1 (A to B)” value [2] was 14 nm/s and the IC50 (human kallikrein) was > 30 µM.
